# From EPA's ToxRefDB 2
# How the values were obtained:
# [1] = test system: mouse; conditions: Carcinogenicity, cd1, Oral, Feed, dose end: 18 month, group: systemic
# [2] = test system: rat; conditions: Prenatal developmental toxicity study, other, Oral, Gavage/Intubation, dose end: 16 GD
# [3] = test system: mouse; conditions: Subchronic oral toxicity in rodents, cd1, Feed, dose end: 90 day, group: systemic
# [4] = test system: dog; conditions: Chronic toxicity, beagle, Oral, Feed, dose end: 52 week, group: systemic
# [5] = test system: rat; conditions: Subchronic oral toxicity in rodents, sprague dawley, Feed, dose end: 90 day, group: systemic
# [6] = test system: dog; conditions: Subchronic oral toxicity in nonrodent, beagle, Feed, dose end: 90 day, group: systemic
# [7] = test system: rat; conditions: Multigenerational reproductive toxicity study, other, Oral, Feed, dose end: 2 generation
# [8] = group: developmental, developmental / developmental malformation / bone / malformation, total + developmental / developmental malformation / bone / misshapen + …
# [9] = group: maternal, reproductive / reproductive performance / resorptions / resorptions + reproductive / reproductive performance / estrous cycle / corpora …
# [10] = systemic / hematology / hemoglobin (hgb) / hemoglobin (hgb) + systemic / in life observation / body weight / body weight gain + systemic / …
# [11] = systemic / pathology microscopic / liver / pigmentation
# [12] = systemic / clinical chemistry / alanine aminotransferase (alt/sgpt) / alanine aminotransferase (alt/sgpt) + systemic / pathology microscopic…
# [13] = systemic / hematology / erythrocyte (rbc) count differential / erythrocyte (rbc) + systemic / hematology / hematocrit (hct) / hematocrit (…
# [14] = group: offspring, developmental / offspring survival late / lactation index / lactation index + developmental / offspring survival late / viability index / …
# [15] = group: parental, systemic / hematology / methemoglobin / methemoglobin
# [16] = group: reproductive, reproductive / reproductive performance / gestational length / gestational length + reproductive / reproductive performance / implantations…
structure (smiles),measurement,setting,value
C#CCOc1cc(-n2nc3n(c2=O)CCCC3)c(Cl)cc1Cl [Azafenidin],NEL,[1]; systemic / pathology gross / full gross necropsy / proliferation,4 mg/kg/day
same,LOAEL,[1]; systemic / pathology microscopic / liver / adenoma + systemic / pathology microscopic / liver / pigmentation,39.8 mg/kg/day
same,NOAEL,[1]; systemic / pathology microscopic / liver / adenoma + systemic / pathology microscopic / liver / pigmentation + systemic / hematology / mean …,4 mg/kg/day
same,LEL,[1]; systemic / pathology microscopic / liver / adenoma + systemic / pathology microscopic / liver / pigmentation + systemic / pathology gross / …,39.8 mg/kg/day
same,LEL,[2]; [8],24 mg/kg/day
same,LOAEL,[2]; [8],24 mg/kg/day
same,NEL,[2]; [8],16 mg/kg/day
same,NOAEL,[2]; [8],16 mg/kg/day
same,LEL,"[2]; group: maternal, reproductive / reproductive performance / estrous cycle / corpora lutea",16 mg/kg/day
same,LOAEL,"[2]; group: maternal, reproductive / reproductive performance / resorptions / resorptions",24 mg/kg/day
same,NEL,[2]; [9],8 mg/kg/day
same,NOAEL,[2]; [9],16 mg/kg/day
same,LOAEL,[3]; [10],144 mg/kg/day
same,NEL,[3]; [10],7.94 mg/kg/day
same,NOAEL,[3]; [10],47.2 mg/kg/day
same,LEL,[3]; [11],47.2 mg/kg/day
same,LOAEL,[4]; [12],0.86 mg/kg/day
same,NOAEL,[4]; [12],0.3 mg/kg/day
same,LEL,[4]; systemic / pathology microscopic / liver / cytoplasmic alteration,0.3 mg/kg/day
same,NEL,[4]; systemic / pathology microscopic / liver / cytoplasmic alteration + systemic / clinical chemistry / alanine aminotransferase (alt/sgpt) / …,0.16 mg/kg/day
same,LOAEL,[5]; [13],71.9 mg/kg/day
same,NEL,[5]; [13],4.02 mg/kg/day
same,NOAEL,[5]; [13],24.2 mg/kg/day
same,LEL,[5]; systemic / organ weight / kidney / relative to body weight,24.2 mg/kg/day
same,LOAEL,[6]; systemic / pathology microscopic / liver / hypertrophy + systemic / pathology microscopic / liver / pigmentation,2.02 mg/kg/day
same,NOAEL,[6]; systemic / pathology microscopic / liver / hypertrophy + systemic / pathology microscopic / liver / pigmentation + systemic / clinical …,0.34 mg/kg/day
same,LEL,[6]; [11],0.34 mg/kg/day
same,NEL,[6]; [11],< 0.34 mg/kg/day
same,LEL,[7]; [14],14.5 mg/kg/day
same,LOAEL,[7]; [14],14.5 mg/kg/day
same,NEL,[7]; [14],2.33 mg/kg/day
same,NOAEL,[7]; [14],2.33 mg/kg/day
same,LEL,[7]; [15],0.389 mg/kg/day
same,NEL,[7]; [15],< 0.389 mg/kg/day
same,LOAEL,"[7]; group: parental, systemic / in life observation / food consumption / food consumption + systemic / in life observation / mortality / mortality",78.6 mg/kg/day
same,NOAEL,"[7]; group: parental, systemic / in life observation / food consumption / food consumption + systemic / in life observation / mortality / mortality + systemic / …",14.4 mg/kg/day
same,LEL,[7]; [16],14.4 mg/kg/day
same,LOAEL,[7]; [16],14.4 mg/kg/day
same,NEL,[7]; [16],2.31 mg/kg/day
same,NOAEL,[7]; [16],2.31 mg/kg/day
